Experimental findings from US20020086281A1, “Detection of neurodegenerative diseases, in vitro screening assays” (priority 1998, published 2002) are described below.

Assay [1] has as its system LHON 3460 mutation lymphoblasts. Put plainly: Microphysiometry of LHON cells, 3460 mutation. To be noted: LHON 3460 mutation cells compared with control; FIG. 4A-4E. It is filed as cell-based, human. From the text: (§1) The rate at which cells excrete protons (the acidification rate) is closely linked to the rate at which they convert nutrients to energy. Because energy metabolism is coupled to ATP consumption, any event that perturbs ATP levels, such as receptor activation or calcium influx, causes a change in energy metabolism and, therefore, an alteration in proton excretion. In addition, receptor activation may also directly affect proton excretion by altering Na/H exchange. A typical microphysiometer, such as the Cytosensor™ (Molecular Devices), uses a silicon-based sensor to measure the rate of proton excretion from 10^4-10^6 cells. Cells are contained in a 3 μL flow chamber in aqueous contact with the pH-sensitive surface of a light-sensitive potentiometric sensor. Flow of medium (with low buffering capacity) and test compounds are determined by a series of microprocessor-controlled pumps. The extracellular acidification rate is determined by measuring the decrease in pH that occurs as acidic metabolites accumulate during brief halts in the flow of medium. The degree of stimulation of the basal acidification is calculated and plotted as a per cent of the basal acidification rate. The sensor takes a voltage measurement that is linearly related to pH. Typically, during a 30-60 sec halt in flow, pH will decrease less than 0.1 pH unit. Reproducible and robust responses are obtained to metabolic inhibitors, growth factors and ionophores in lymphoblast lines. Because virtually any manipulation alters proton excretion, it is relatively easy to determine the types of stimuli to which disease cell lines respond abnormally.
(§2) LHON: Previous work at Emory University has identified causative mitochondrial DNA mutations in LHON patients. Well-characterized LHON patient cell lines have been generated and banked. These cell lines have been characterized by molecular genetic, cellular respiration and enzymology studies. The patient cell lines were obtained from the Emory University Clinical Research Center (Emory University, Atlanta, Ga.).
(§3) Patient lymphocytes are immortalized using the technique of Neitzel H, Human Genetics 73:320-326 (1986). In brief, the lymphocytes are removed from the buffy coat layer following Histopaque density separation. […]
(§4) Lymphoblasts are suspended in agarose entrapment solution at a density of 5×10^5 cells/10 μl, then are plated onto chamber inserts, and allowed to solidify for 20 minutes. […] The rate of acidification is calculated as the slope of a linear least squares fit to the relation of pH versus time during the pump's off period. […]

The subject of assay [2] is LHON 14459 mutation lymphoblasts. Put plainly: Microphysiometry of LHON cells, 14459 mutation. As to conditions: LHON 14459 mutation cells compared with control; FIG. 4A-4E. Format: cell-based, human.
From the text: as §1, §2, §3, §4

The subject of assay [3] is PC12 cells transfected with two mutant forms of PS1. It is filed as cell-based, Rat. As to conditions: PC12 cells transfected with mutant presenilin-1; FIG. 2A-2D.
From the text: as §1
Rat adrenal pheochromocytoma PC 12 cells were stably transfected with PS1 cDNA cloned behind the CMV promoter in pcDNA3. See, e.g., Lah, J. J. et al., J. Neurosci. […]
as §4

Another assay has as its system HD fibroblasts. The experiment in a line: Microphysiometry of HD cells. It is filed as cell-based, human. As to conditions: HD cells compared with control cells; FIG. 3.
A further assay relates to PD lymphoblasts. Put plainly: Microphysiometry of PD lymphoblasts. It is filed as cell-based, human. As to conditions: PD lymphoblasts compared with controls; FIG. 5A-5D.
From the text: as §1, with “abnormally. […]” for “abnormally.”
as §4

In a further assay the test system is sporadic AD lymphoblasts. Put plainly: Microphysiometry (acidification rate) of sporadic AD lymphoblasts. It is filed as cell-based, human. As to conditions: sporadic AD lymphoblasts compared with controls; FIG. 1A-1D.
From the text: as §1, with “Because virtually any manipulation alters proton excretion, it is relatively easy to determine the types of stimuli to which disease cell lines respond abnormally.” left out
Alzheimer's disease: Lymphoblast cell lines were generated from blood samples obtained from patients followed in the Emory Alzheimer's Disease Center. All patients have been evaluated by detailed neurological and neuropsychometric examinations. […]
as §4

A further assay has as its system control cells. Put plainly: Microphysiometry of control cells, ionomycin response after rotenone. As to conditions: control cells exposed to rotenone; FIG. 3. It is filed as cell-based, human.
From the text: as §1, with “Cells are contained in a 3 μL flow chamber in aqueous contact with the pH-sensitive surface of a light-sensitive potentiometric sensor.” left out, “The sensor takes a voltage measurement that is linearly related to pH. Typically, during a 30-60 sec halt in flow, pH will decrease less than 0.1 pH unit. Reproducible and robust responses are obtained to metabolic inhibitors, growth factors and ionophores in lymphoblast lines. Because virtually any manipulation alters proton excretion, it is relatively easy to determine the types of stimuli to which disease cell lines respond abnormally.” left out
as §4

Turning to `O=C(CC(=O)C(F)(F)F)c1cccs1` [TTFA, Thenoyltrifluoroacetone], the “microphysiometric response to the inhibitor or ionophore” value in assay [1] is “no difference between control and patient lymphoblast responses”; in assay [2], “no difference between control and patient lymphoblast responses”.
As for `CN(C)C(=O)Nc1ccc(Cl)c(Cl)c1` [diuron], the “microphysiometric response to the inhibitor” value in assay [3] was “similarly depressed response”.
For `C[C@H](CCC(=O)O)C[C@H](C)C[C@H](C)C(=O)/C=C(\O)[C@H](C)C[C@H](C)C/C=C/[C@@H](C)[C@@H](O)[C@@H](C)[C@@H](O)C[C@@H]1CC[C@@](C)([C@H]2CC[C@@](C)([C@@H](C)O)O2)O1` [ionomycin], the “microphysiometric response to the inhibitor or ionophore” value in assay [1] and in assay [2] was “abnormal” each time. The “microphysiometric response to the calcium ionophore” value in the assay on HD fibroblasts was “abnormal responses”.
With `O=C(O)CC(=O)O` [malonate], the “microphysiometric response to the inhibitor” value is listed as “do not differ substantially from controls” in the assay on PD lymphoblasts and “normal response” in assay [3]. Besides, in the assay on sporadic AD lymphoblasts, the “microphysiometric response (stimulation of acidification rate) to the inhibitor” value is given as “do not differ substantially from controls”.
For the compound `C=C(C)[C@H]1Cc2c(ccc3c2O[C@@H]2COc4cc(OC)c(OC)cc4[C@@H]2C3=O)O1` [rotenone], the results for the “microphysiometric response to the inhibitor” value (in the assay with PD lymphoblasts; in assay [3]) were “markedly blunted” and “similarly depressed response”, respectively. In addition, the figures for the “microphysiometric response to the inhibitor or ionophore” value in assay [1] and in assay [2] were “virtually absent” and “markedly depressed”, respectively. For the same compound, the “reproduction of the HD-type altered response to ionomycin” value in the assay with control cells is “can be reproduced in control cells”. The “microphysiometric response (stimulation of acidification rate) to the inhibitor” value in the assay on sporadic AD lymphoblasts was “markedly blunted”.
On to antimycin-A, for which the “microphysiometric response to the inhibitor” value in the assay with PD lymphoblasts is “do not differ substantially from controls”. Further, the “microphysiometric response to the inhibitor or ionophore” value in assay [1] and in assay [2] was “markedly depressed” in each case. Moreover, the “microphysiometric response (stimulation of acidification rate) to the inhibitor” value with sporadic AD lymphoblasts is given as “markedly blunted”.
